Publication PMC11868595, “Safety, pharmacokinetics and efficacy of HA121-28 in patients with advanced solid tumors and RET fusion-positive non-small-cell lung cancer: a multicenter, open-label, single-arm phase 1/2 trial” (Signal Transduction and Targeted Therapy, 2025)

Test system: patients with RET fusion-positive NSCLC
Experiment: Phase 2 trial: adverse events (CTCAE)
Type: in vivo, human
Description: The phase 2 trial was still ongoing. It was a single-arm, multicenter, open-label, nonrandomized study to assess the efficacy and safety of HA121-28 in RET-fusion-positive NSCLC.
Patients aged 18–75 years (inclusive) who had unresectable locally advanced or metastatic NSCLC through histologically or cytologically examination were enrolled. Patients were also required to have documented RET fusions centrally examined by next-generation sequencing in certified laboratories but without other oncogenic alterations. Had progression on at least one previous line of standard treatment but have no previous use of other anti-RET inhibitors. The complete lists of inclusion and exclusion criteria of phase 1 and phase 2 are provided in both protocols (in Supplement).
In phase 1 trial, during the dose-escalation part, patients first administered HA121-28 in a single ascending dose under the fasted state, then followed up for seven days. Then, patients received ascending doses of HA121-28 (q.d.) on a 21-day on and 7-day off treatment scheme for a 28-day cycle. For patients deemed beneficial from the treatment by investigators, treatment could remain until disease progression, or they discontinued from the study. In the dose-expansion part of phase 1, as well as phase 2, patients received HA121-28 (q.d.) at the selected doses on a 21-day on and 7-day off treatment scheme until disease progression, or they discontinued from the study.
Treatment-emergent adverse events (TEAEs) were documented during the entire study period. The predefined adverse event of special interest (AESI) was ≥ grade 3 prolonged QT interval. Tumor imaging was performed using contrast-enhanced computed tomography or magnetic resonance imaging at screening, Day 28 of the first cycle, then approximately every eight weeks till the end of the study for phase 1; in phase 2, imaging was scheduled at screening, and every eight weeks during the first 40 weeks, followed by every 12 weeks for the rest of the study period. RECIST 1.1 was used by the independent review committee or investigators for assessment of tumor response. After the original assessment, a repeated assessment was required around four weeks later to confirm a complete or partial response.
The primary endpoint of phase 2 was the independent review committee evaluated ORR using RECIST 1.1. The secondary endpoints included investigators assessed ORR; DCR, PFS, and DOR by the independent review committee and investigators; overall survival and TEAEs. Each TEAE was graded according to CTCAE version 5.0 and coded by MedDRA (version 24.0). The phase 2 trial is ongoing; not all endpoints are reported in this paper.

## COc1cc2c(Nc3ccc(Br)cc3F)ncnc2cc1OCCCCN(C)C.Cl.Cl [HA121-28, N-(4-bromo-2-fluorophenyl)-7-(4-(dimethylamino)butoxy)-6-methoxy quinazolin-4-amine dihydrochloride]
Phase 2 (N=48), 450 mg
  TEAE, All: ALT increased: 20 (41.7) count (percentage)
  TEAE, All: AST increased: 21 (43.8) count (percentage)
  TEAE, All: Anemia: 5 (10.4) count (percentage)
  TEAE, All: Any: 48 (100) count (percentage)
  TEAE, All: Asthenia: 7 (14.6) count (percentage)
  TEAE, All: Blood ALP increased: 5 (10.4) count (percentage)
  TEAE, All: Blood creatinine increased: 9 (18.8) count (percentage)
  TEAE, All: COVID-19: 7 (14.6) count (percentage)
  TEAE, All: Cough: 6 (12.5) count (percentage)
  TEAE, All: Decreased appetite: 5 (10.4) count (percentage)
  TEAE, All: Diarrhea: 35 (72.9) count (percentage)
  TEAE, All: Dizziness: 3 (6.3) count (percentage)
  TEAE, All: Electrocardiogram T wave abnormal: 5 (10.4) count (percentage)
  TEAE, All: Fecal occult blood positive: 0 count (percentage)
  TEAE, All: GGT increased: 6 (12.5) count (percentage)
  TEAE, All: Hypertension: 11 (22.9) count (percentage)
  TEAE, All: Hypertriglyceridemia: 7 (14.6) count (percentage)
  TEAE, All: Hypoalbuminemia: 4 (8.3) count (percentage)
  TEAE, All: Hypokalemia: 11 (22.9) count (percentage)
  TEAE, All: Hyponatremia: 5 (10.4) count (percentage)
  TEAE, All: Nausea: 3 (6.3) count (percentage)
  TEAE, All: Neutrophil counts decreased: 7 (14.6) count (percentage)
  TEAE, All: Platelet counts decreased: 6 (12.5) count (percentage)
  TEAE, All: Prolonged QT interval: 21 (43.8) count (percentage)
  TEAE, All: Proteinuria: 16 (33.3) count (percentage)
  TEAE, All: Rash: 30 (62.5) count (percentage)
  TEAE, All: Sinus tachycardia: 5 (10.4) count (percentage)
  TEAE, All: Urinary tract infection: 5 (10.4) count (percentage)
  TEAE, All: Vomiting: 6 (12.5) count (percentage)
  TEAE, All: Weight loss: 5 (10.4) count (percentage)
  TEAE, All: White blood cell counts decreased: 8 (16.7) count (percentage)
  TEAE, ≥ Grade 3: ALT increased: 3 (6.3) count (percentage)
  TEAE, ≥ Grade 3: AST increased: 2 (4.2) count (percentage)
  TEAE, ≥ Grade 3: Anemia: 0 count (percentage)
  TEAE, ≥ Grade 3: Any: 35 (72.9) count (percentage)
  TEAE, ≥ Grade 3: Asthenia: 0 count (percentage)
  TEAE, ≥ Grade 3: Blood ALP increased: 0 count (percentage)
  TEAE, ≥ Grade 3: Blood creatinine increased: 0 count (percentage)
  TEAE, ≥ Grade 3: COVID-19: 1 (2.1) count (percentage)
  TEAE, ≥ Grade 3: Cough: 0 count (percentage)
  TEAE, ≥ Grade 3: Decreased appetite: 1 (2.1) count (percentage)
  TEAE, ≥ Grade 3: Diarrhea: 6 (12.5) count (percentage)
  TEAE, ≥ Grade 3: Dizziness: 0 count (percentage)
  TEAE, ≥ Grade 3: Electrocardiogram T wave abnormal: 0 count (percentage)
  TEAE, ≥ Grade 3: Fecal occult blood positive: 0 count (percentage)
  TEAE, ≥ Grade 3: GGT increased: 0 count (percentage)
  TEAE, ≥ Grade 3: Hypertension: 9 (18.8) count (percentage)
  TEAE, ≥ Grade 3: Hypertriglyceridemia: 0 count (percentage)
  TEAE, ≥ Grade 3: Hypoalbuminemia: 0 count (percentage)
  TEAE, ≥ Grade 3: Hypokalemia: 3 (6.3) count (percentage)
  TEAE, ≥ Grade 3: Hyponatremia: 0 count (percentage)
  TEAE, ≥ Grade 3: Nausea: 0 count (percentage)
  TEAE, ≥ Grade 3: Neutrophil counts decreased: 2 (4.2) count (percentage)
  TEAE, ≥ Grade 3: Platelet counts decreased: 0 count (percentage)
  TEAE, ≥ Grade 3: Prolonged QT interval: 15 (31.3) count (percentage)
  TEAE, ≥ Grade 3: Proteinuria: 0 count (percentage)
  TEAE, ≥ Grade 3: Rash: 1 (2.1) count (percentage)
  TEAE, ≥ Grade 3: Sinus tachycardia: 0 count (percentage)
  TEAE, ≥ Grade 3: Urinary tract infection: 1 (2.1) count (percentage)
  TEAE, ≥ Grade 3: Vomiting: 0 count (percentage)
  TEAE, ≥ Grade 3: Weight loss: 0 count (percentage)
  TEAE, ≥ Grade 3: White blood cell counts decreased: 1 (2.1) count (percentage)
Phase 2, 450 mg (N=48)
  Serious TEAE: ALT increased: 1 (2.1) No. (%)
  Serious TEAE: AST increased: 1 (2.1) No. (%)
  Serious TEAE: Abdominal Pain: 1 (2.1) No. (%)
  Serious TEAE: Abdominal distension: 1 (2.1) No. (%)
  Serious TEAE: Acute cholecystitis: 0 No. (%)
  Serious TEAE: Acute pancreatitis: 0 No. (%)
  Serious TEAE: Anal abscess: 0 No. (%)
  Serious TEAE: Any: 19 (39.6) No. (%)
  Serious TEAE: Aortic intramural hematoma: 0 No. (%)
  Serious TEAE: Arrhythmia: 0 No. (%)
  Serious TEAE: Blood bilirubin increased: 0 No. (%)
  Serious TEAE: Blood creatinine increased: 0 No. (%)
  Serious TEAE: COVID-19: 1 (2.1) No. (%)
  Serious TEAE: Cardiac tamponade: 0 No. (%)
  Serious TEAE: Coronary artery atherosclerosis: 1 (2.1) No. (%)
  Serious TEAE: Death: 1 (2.1) No. (%)
  Serious TEAE: Diarrhea: 1 (2.1) No. (%)
  Serious TEAE: Drug eruption: 0 No. (%)
  Serious TEAE: Dyspnea: 1 (2.1) No. (%)
  Serious TEAE: Embolism: 1 (2.1) No. (%)
  Serious TEAE: Erythema multiforme: 1 (2.1) No. (%)
  Serious TEAE: Headache: 1 (2.1) No. (%)
  Serious TEAE: Hemoptysis: 0 No. (%)
  Serious TEAE: Hydronephrosis: 1 (2.1) No. (%)
  Serious TEAE: Hypertension: 2 (4.2) No. (%)
  Serious TEAE: Hypoalbuminemia: 0 No. (%)
  Serious TEAE: Intestinal obstruction: 0 No. (%)
  Serious TEAE: Intra-abdominal fluid collection: 1 (2.1) No. (%)
  Serious TEAE: Intracranial tumor hemorrhage: 1 (2.1) No. (%)
  Serious TEAE: Liver injury: 0 No. (%)
  Serious TEAE: Lung adenocarcinoma: 1 (2.1) No. (%)
  Serious TEAE: Malignant neoplasm progression: 1 (2.1) No. (%)
  Serious TEAE: Multiple organ dysfunction syndrome: 0 No. (%)
  Serious TEAE: Nausea: 0 No. (%)
  Serious TEAE: Nephrolithiasis: 1 (2.1) No. (%)
  Serious TEAE: Platelet counts decreased: 0 No. (%)
  Serious TEAE: Pleural effusion: 0 No. (%)
